Data as given in article PMC11410929, “Biochemical and crystallographic studies of L,D-transpeptidase 2 from Mycobacterium tuberculosis with its natural monomer substrate” (Communications Biology, 2024).

System: LdtMt2^C354S
Type: biochemical, Mycobacterium tuberculosis

lactoyl-L-Ala-D-iGluNH2-m-DAPNH2-D-Ala [Compound 3]
Product formation with LdtMt2^C354S: no product formation was observed

GlcNAc-MurNAc-L-Ala-D-iGluNH2-m-DAPNH2-D-Ala [Compound 1]
Product formation with LdtMt2^C354S: no product formation was observed

GlcNAc-Muramitol-L-Ala-D-iGluNH2-m-DAPNH2-D-Ala [Compound 2]
Product formation with LdtMt2^C354S: no product formation was observed
